Measurements from patent US20230414506A1, “PEPTIDE FORMULATIONS AND METHODS OF USE” (REALTA LIFE SCIENCES, INC., priority 2020, published 2023).
Ends that are not written are not given here. dPEG24 = C-terminal PEG24

Assays:
[1] = Aqueous solubility of the peptides; type: physicochemical
[2] = Gelling of citrate buffer formulation; type: physicochemical; conditions: 80 mg/ml, pH 6.8
Procedure: For the citrate buffer conditions, PA-dPEG24 and PA-I8Sar were formulated at a concentration of 80 mg/ml at pH 6.8. […] This gelling behavior was not observed for PA-I8Sar.

[3] = test system: complement activity (human O sera and AB red blood cells); assay: ABO incompatibility CH50-type hemolytic assay of peptides formulated with different excipients; type: biochemical; conditions: for Inhibition of complement activation in the hemolytic assay: formulated in citrate, ascorbate and methionine, compared to histidine formulation
Procedure: To ascertain if these various excipients had any effect on the functional activity of PA-dPEG24 and PA-I8Sar, the formulated peptides were tested in a hemolytic assay to determine the ability of these molecules to inhibit complement activity. For hemolytic complement assays, human red blood cells (RBCs) from type AB donors were purified, washed and standardized to 1×10^9 cells/ml, as previously described. Human sera from type O donors at a 20% final concentration was combined with increasing concentrations of the formulated peptides and the volume was brought up to 0.15 ml with GVBS++ buffer and […] RBCs. The samples were spun at 3,000 rpm for 5 minutes and the supernatant was collected and read at 412 nm. Values are represented as a percent of the positive control, which consists of human O sera and AB red blood cells in GVBS++ buffer without peptide addition.

[4] = type: physicochemical; conditions: 20% Intralipid, 4° C. for 48 hours
[5] = cited from earlier work

Row | Substance | Solubility studies, character of the peptide [1] | Gelling behavior [2] | Inhibition of complement activation in the hemolytic assay [3] | Appearance of Intralipid mixture on standing [4] | Complement inhibiting activity compared between excipients ([3]; ascorbate, citrate, histidine, methionine formulations) | Aqueous solubility [5]
1 | IALILEP(Sar)CCQERAA [PA-I8Sar] | amphipathic | not observed | able to maintain dose-dependent inhibition of complement activation | – | – | –
2 | IALILEPICCQERAA [PA] | – | – | – | became paste-like | – | –
3 | IALILEPICCQERAA-dPEG24 (cysteine pairing not given here) [PA-dPEG24] | – | would start to gel if not kept on ice | able to maintain dose-dependent inhibition of complement activation | – | slightly increased complement inhibiting activity compared to peptide formulated in methionine | highly soluble
